Experimental data reported in patent publication US6576622B1, “Drug combination for the treatment of viral diseases” (University of Medicine & Dentistry of New Jersey, priority 1995, dated 2003).

What was measured:
HIV-gpt [1] = test: HIV-gpt colony formation after infection of HeLa-T4 cells in the presence of antiretroviral agents; format: cell-based; settings: HeLa-T4; plasmid derived HIV-gpt (COS cells); AZT 10 μM, DDI 50 μM, D4T 50 μM; no drug control 8800
HIV-LacZ = format: cell-based
HIV-gpt [2] = settings: in the presence of TIBO R82150; earlier study (26); cited from earlier work

For CC(C)=CCN1Cc2cccc3[nH]c(=S)n(c23)C[C@@H]1C [TIBO], which Number of colonies (HIV-gpt [1]) is on record?
Its Number of colonies is 3.

And the “selection of cells “persistently resistant” to the antiretroviral effects of the drug” value (HIV-LacZ; HeLa-T4, identical techniques as for nucleoside analogs)?
The value was “no cells “persistently resistant””.

And the “Number of “persistently resistance” colonies” value (HIV-LacZ; colonies from HIV-gpt infection of HeLa-T4 in presence of drug, resistant/tested)?
The value was 0/3.

And the Frequency (HIV-LacZ; frequency of persistently resistant colonies, HeLa-T4, plasmid derived HIV-gpt)?
The Frequency was 0.

What about the “prevalence of infection with COS-cell derived virus versus HIV-gpt rescued by replication-competent virus” value (HIV-gpt [2]) of the same compound?
The value was “twenty fold lower”.
